Experimental data taken from patent publication US20090286884A1, “Hops Beta-Acid Anti-Diabetic Composition” (priority 2004, published 2009).

System: normal human muscle myoblasts (HSMM)
Test: 3H-deoxyglucose uptake into skeletal muscle cells
Assay type: cell-based
Details: after 24 hrs incubation in the presence of various hops extracts
Description: All skeletal muscle cell strains used are skeletal muscle myoblast cells (purchased from Clonetics) with negative for HIV-I, hepatitis-B & C, mycoplasma, bacteria, yeast and fungi. This Skeletal Muscle Myoblast Cell System contains normal human muscle myoblasts (HSMM). The cell and media System can quickly generate HSMM cultures for the study of cellular development and differentiation, insulin uptake or resistance, or tissue repair. The Skeletal muscle cells were cultured on Cytostar 96-well cultured plate. Cells were labeled with 3H-deoxyglucose (50 μCi/ml, 4 μM) in the presence of 8 mM glucose. Radioactivity was counted on a Microbeta scintillation counter. In beta-acid treated cells (mixture of 65:25:10 of co-Lupulone: lupulone: ad-lupulone, Beta Tec, Washington, D.C.), kinetics of labeled deoxyglucose uptake was directly measured without washing. In order to avoid color quenching of quercetin treated cells, cells were washed with Hanks buffer and then the radioactivity was measured at end-point (18 hr). Error bars show SD (n=3).

COc1cc(O)c(CC=C(C)C)c(O)c1C(=O)/C=C/c1ccc(O)cc1 [xanthohumol]
glucose uptake into muscle skeletal cells, enhancing effect: no enhancing effect
